Reference: patent US5508417A, “Broad-spectrum isothiazole antimicrobial agents” (Rohm and Haas Company, priority 1994, dated 1996)
≈ marks a conversion by molar mass, not a printed value. Where two headings read alike, the source gives them in different places.

What was measured:
[1] = test system: Aspergillus niger; test: Minimum inhibitory concentration by two-fold serial dilution in Trypticase Soy Broth, Aspergillus niger; format: cell-based
Experimental: (§1) A stock solution of the test compound was made in dimethyl sulfoxide at 13,000 ppm and then diluted 26-fold to give a starting concentration of 500 ppm. The antimicrobial activity was evaluated by a two-fold serial dilution of the starting concentration of 500 ppm, using Trypticase Soy Broth medium at pH 7.0. The minimum inhibitory concentration (MIC) of compounds 1-15 against the test organisms are shown in Table 2. |Aspergillus niger Anig The antimicrobial activity of these compounds was determined as described in Example 6 with only one change. The organism Saur was replaced by Rhodotorula rubra (Rrub). Rrub is a pink yeast.

[2] = in words; U.S. Pat. No. 3,957,808; cited from earlier work
[3] = test system: Escherichia coli; test: Minimum inhibitory concentration by two-fold serial dilution in Trypticase Soy Broth, Escherichia coli; format: cell-based
Experimental: as §1, with “|Escherichia coli Ecol” for “|Aspergillus niger Anig”

[4] = test system: Rhodotorula rubra; test: Minimum inhibitory concentration by two-fold serial dilution in Trypticase Soy Broth, Rhodotorula rubra; format: cell-based; conditions: Table 3, comparative, as described in Example 6, read-out: Comparative Antimicrobial Activity (MIC), Rrub
Experimental: as §1, with “The” for “The minimum inhibitory concentration (MIC) of compounds 1-15 against the test organisms are shown in Table 2. |Aspergillus niger Anig The”

[5] = test system: Pseudomonas aeruginosa; test: Minimum inhibitory concentration by two-fold serial dilution in Trypticase Soy Broth, Pseudomonas aeruginosa; format: cell-based
Experimental: as §1, with “|Pseudomonas aeruginosa | Psae” for “|Aspergillus niger Anig”

[6] = test system: Staphlococcus aureus; test: Minimum inhibitory concentration by two-fold serial dilution in Trypticase Soy Broth, Staphlococcus aureus; format: cell-based; conditions: Table 2, pH 7.0, read-out: Antimicrobial Activity (MIC), Saur
Experimental: A stock solution of the test compound was made in dimethyl sulfoxide at 13,000 ppm and then diluted 26-fold to give a starting concentration of 500 ppm. The antimicrobial activity was evaluated by a two-fold serial dilution of the starting concentration of 500 ppm, using Trypticase Soy Broth medium at pH 7.0. The minimum inhibitory concentration (MIC) of compounds 1-15 against the test organisms are shown in Table 2. |Staphlococcus aureus | Saur

[7] = Table 3, comparative, as described in Example 6, read-out: Comparative Antimicrobial Activity (MIC), Anig
[8] = Table 3, comparative, as described in Example 6, read-out: Comparative Antimicrobial Activity (MIC), Ecol
[9] = Table 3, comparative, as described in Example 6, read-out: Comparative Antimicrobial Activity (MIC), Psae
[10] = Table 2, Trypticase Soy Broth, pH 7.0, read-out: Antimicrobial Activity (MIC), Anig
[11] = Table 2, Trypticase Soy Broth, pH 7.0, read-out: Antimicrobial Activity (MIC), Ecol
[12] = Table 2, Trypticase Soy Broth, pH 7.0, read-out: Antimicrobial Activity (MIC), Psae

SMILES	MIC [1, 7] [µg/mL]	microbicidal properties [2]	MIC [3, 8] [µg/mL]	MIC [4] [µg/mL]	MIC [5, 9] [µg/mL]	MIC [1, 10] [µg/mL]	MIC [3, 11] [µg/mL]	MIC [5, 12] [µg/mL]	MIC [6] [µg/mL]
C=CCOc1ccsn1 [Compound A, reference compound]	500 (≈ 3540 µM)	useful microbicidal properties	> 500	> 500	> 500				
C=C(COc1cc(Cl)sn1)[S+]([O-])c1ccccc1 (stereo not shown) [Compound 6, 3-(5-Chloroisothiazoloxy-3-yl-methyl)-2-phenylsulfinyl-1-propene]						32 (≈ 107 µM)	125 (≈ 417 µM)	125 (≈ 417 µM)	125 (≈ 417 µM)
N#CC(=Cc1ccccc1)COc1cc(Cl)sn1 [Compound 4, 2-(5-Chloroisothiazoloxy-3-yl-methyl)-3-phenylacrylonitrile]						500 (≈ 1810 µM)	> 500	> 500	500 (≈ 1810 µM)
CC(=O)C(=Cc1ccccc1)COc1cc(Cl)sn1 [Compound 5, α-(5-Chloroisothiazoloxy-3-yl-methyl)benzalacetone]						1 (≈ 3.4 µM)	4 (≈ 13.6 µM)	16 (≈ 54.5 µM)	2 (≈ 6.81 µM)
C=CCOc1cc(Cl)sn1 [B, reference compound]	250 (≈ 1420 µM)		250 (≈ 1420 µM)	500 (≈ 2850 µM)	500 (≈ 2850 µM)				
O=C1C=CC(=O)C(COc2ccsn2)=C1 [Compound 15, 2-(Isothiazoloxy-3-yl-methyl)-1,4-benzoquinone]						16 (≈ 72.3 µM)	64 (≈ 289 µM)	32 (≈ 145 µM)	32 (≈ 145 µM)
CC=C(COc1cc(Cl)sn1)S(=O)(=O)c1ccccc1 [Compound 8, 1-(5-Chloroisothiazoloxy-3-yl-methyl)-2-phenylsulfonyl-2-butene]						64 (≈ 194 µM)	32 (≈ 97 µM)	64 (≈ 194 µM)	32 (≈ 97 µM)
C=C(COc1cc(Cl)sn1)C(=O)NCc1ccccc1 [Compound 9, N-Benzyl 2-(5-chloroisothiazoloxy-3-yl-methyl)acrylamide]						32 (≈ 104 µM)	> 500	> 500	> 500
O=C1C=CC(=O)C(COc2cc(Cl)sn2)=C1 [Compound 14, 2-(5-Chloroisothiazoloxy-3-yl-methyl)-1,4-benzoquinone]						8 (≈ 31.3 µM)	16 (≈ 62.6 µM)	64 (≈ 250 µM)	64 (≈ 250 µM)
C=C(COc1ccsn1)C(=O)OC [Compound 1, Methyl 2-(isothiazoloxy-3-yl-methyl)acrylate]	32 (≈ 161 µM)		32 (≈ 161 µM)	32 (≈ 161 µM)	32 (≈ 161 µM)	32 (≈ 161 µM)	32 (≈ 161 µM)	32 (≈ 161 µM)	
CC(=O)C(=Cc1ccccc1)COc1nsc2c1CCC2 [Compound 11, α-(4,5-Trimethyleneisothiazoloxy-3-yl-methyl)benzalacetone]						500 (≈ 1670 µM)	> 500	> 500	> 500
CC=C(COc1cc(Cl)sn1)C(=O)OCC [Compound 3, Ethyl 3-methyl-2-(5-chloroisothiazoloxy-3-yl-methyl)acrylate]						4 (≈ 15.3 µM)	8 (≈ 30.6 µM)	125 (≈ 478 µM)	8 (≈ 30.6 µM)
C=C(COc1cc(Cl)sn1)C(=O)NC(C)C [Compound 12, N-Isopropyl 2-(5-chloroisothiazoloxy-3-yl-methyl)acrylamide]						64 (≈ 245 µM)	500 (≈ 1920 µM)	500 (≈ 1920 µM)	> 500
O=c1c(COc2cc(Cl)sn2)coc2ccccc12 [Compound 13, 3-(5-Chloroisothiazoloxy-3-yl-methyl)chromone]						16 (≈ 54.5 µM)	8 (≈ 27.2 µM)	32 (≈ 109 µM)	8 (≈ 27.2 µM)
C=C(C(C)Oc1cc(Cl)sn1)S(=O)(=O)c1ccccc1 (stereo not shown) [Compound 7, 3-(5-Chloroisothiazoloxy-3-yl)-2-phenylsulfonyl-1-butene]						32 (≈ 97 µM)	32 (≈ 97 µM)	32 (≈ 97 µM)	32 (≈ 97 µM)
C=C(COc1cc(Cl)sn1)C(=O)O [Compound 10, 2-(5-Chloroisothiazoloxy-3-yl-methyl)acrylic acid]						> 500	125 (≈ 569 µM)	> 500	64 (≈ 291 µM)
C=C(COc1cc(Cl)sn1)C(=O)OC [Compound 2, Methyl 2-(5-chloroisothiazoloxy-3-yl-methyl)acrylate]	4 (≈ 17.1 µM)		< 4	8 (≈ 34.2 µM)	32 (≈ 137 µM)	1 (≈ 4.28 µM)	2 (≈ 8.56 µM)	32 (≈ 137 µM)	4 (≈ 17.1 µM)
